Reference: ChEMBL document CHEMBL1141537, “Design and synthesis of dihydroindazolo[5,4-a]pyrrolo[3,4-c]carbazole oximes as potent dual inhibitors of TIE-2 and VEGF-R2 receptor tyrosine kinases” (Bioorg Med Chem Lett, 2008)
Blank lines part the entries; values can stand above or below the compound they belong to.

How the values were obtained:
Angiopoietin-1 receptor = Angiopoietin-1 receptor (Homo sapiens, UniProt Q02763); experiment: Inhibition of human recombinant TIE2 by HTRF assay
A-375 [1] = experiment: Cytotoxicity against human A375 cells; format: functional, cell-based
A-375 [2] = experiment: Antitumor activity against human A375 cells xenografted mouse assessed as partial tumor regression at 10 mg/kg, po bid relative to control; format: functional
A-375 [3] = experiment: Antitumor activity against human A375 cells xenografted mouse assessed as tumor growth inhibition at 10 mg/kg, po bid relative to control; format: functional; set-up: scale not given: the % may be the effect or the level left
Mus musculus = experiment: Toxicity in A375 cells xenografted mouse melanoma model assessed as mortality; format: organism-based, A-375; conditions: in vivo
Insulin receptor = Insulin receptor (Homo sapiens, UniProt P06213); experiment: Inhibition of IR
[4] = target: Vascular endothelial growth factor receptor 2 (Homo sapiens, UniProt P35968); experiment: Inhibition of human recombinant VEGFR2 by HTRF assay
[5] = Half life in rat at 1 mg/kg, iv; format: ADME, organism-based; set-up: dose 1 mg/kg, route intravenous; conditions: in vivo
[6] = Clearance in rat at 1 mg/kg, iv; format: ADME, organism-based; set-up: dose 1 mg/kg, route intravenous; conditions: in vivo
[7] = AUC (0 to infinity) in rat at 1 mg/kg, iv; format: ADME, organism-based; set-up: time infinity, dose 1 mg/kg, route intravenous; conditions: plasma
[8] = Volume of distribution in rat at 1 mg/kg, iv; format: ADME, organism-based; set-up: dose 1 mg/kg, route intravenous; conditions: in vivo
[9] = Oral bioavailability in rat at 5 mg/kg; format: ADME, organism-based; conditions: in vivo
[10] = Half life in rat at 5 mg/kg, po; format: ADME, organism-based; set-up: dose 5 mg/kg, route oral; conditions: in vivo
[11] = AUC (0 to infinity) in rat at 5 mg/kg, po; format: ADME, organism-based; set-up: time infinity, dose 5 mg/kg, route oral; conditions: plasma
[12] = Cmax in rat at 5 mg/kg, po; format: ADME, organism-based; set-up: dose 5 mg/kg, route oral; conditions: in vivo
[13] = target: Proto-oncogene tyrosine-protein kinase Src (Homo sapiens, UniProt P12931); experiment: Inhibition of c-src
[14] = target: Epidermal growth factor receptor (Homo sapiens, UniProt P00533); experiment: Inhibition of EGFR
[15] = target: Vascular endothelial growth factor receptor 1 (Homo sapiens, UniProt P17948); experiment: Inhibition of VEGFR1
[16] = target: Vascular endothelial growth factor receptor 3 (Homo sapiens, UniProt P35916); experiment: Inhibition of VEGFR3
HUVEC [17] = experiment: Inhibition of VEGF-induced HUVEC cells capillary tube formation relative to control; format: functional, cell-based; conditions: Homo sapiens
HUVEC [18] = experiment: Cytotoxicity against HUVEC cells; format: cell-based; conditions: human
Rattus norvegicus = organism: Rattus norvegicus; experiment: Ex vivo antiangiogenic activity in rat aortic ring explant assessed as inhibition of microvessel outgrowth after 10 days; format: functional; conditions: Aorta, 240 h

Sequence of Angiopoietin-1 receptor (Q02763 whole entry): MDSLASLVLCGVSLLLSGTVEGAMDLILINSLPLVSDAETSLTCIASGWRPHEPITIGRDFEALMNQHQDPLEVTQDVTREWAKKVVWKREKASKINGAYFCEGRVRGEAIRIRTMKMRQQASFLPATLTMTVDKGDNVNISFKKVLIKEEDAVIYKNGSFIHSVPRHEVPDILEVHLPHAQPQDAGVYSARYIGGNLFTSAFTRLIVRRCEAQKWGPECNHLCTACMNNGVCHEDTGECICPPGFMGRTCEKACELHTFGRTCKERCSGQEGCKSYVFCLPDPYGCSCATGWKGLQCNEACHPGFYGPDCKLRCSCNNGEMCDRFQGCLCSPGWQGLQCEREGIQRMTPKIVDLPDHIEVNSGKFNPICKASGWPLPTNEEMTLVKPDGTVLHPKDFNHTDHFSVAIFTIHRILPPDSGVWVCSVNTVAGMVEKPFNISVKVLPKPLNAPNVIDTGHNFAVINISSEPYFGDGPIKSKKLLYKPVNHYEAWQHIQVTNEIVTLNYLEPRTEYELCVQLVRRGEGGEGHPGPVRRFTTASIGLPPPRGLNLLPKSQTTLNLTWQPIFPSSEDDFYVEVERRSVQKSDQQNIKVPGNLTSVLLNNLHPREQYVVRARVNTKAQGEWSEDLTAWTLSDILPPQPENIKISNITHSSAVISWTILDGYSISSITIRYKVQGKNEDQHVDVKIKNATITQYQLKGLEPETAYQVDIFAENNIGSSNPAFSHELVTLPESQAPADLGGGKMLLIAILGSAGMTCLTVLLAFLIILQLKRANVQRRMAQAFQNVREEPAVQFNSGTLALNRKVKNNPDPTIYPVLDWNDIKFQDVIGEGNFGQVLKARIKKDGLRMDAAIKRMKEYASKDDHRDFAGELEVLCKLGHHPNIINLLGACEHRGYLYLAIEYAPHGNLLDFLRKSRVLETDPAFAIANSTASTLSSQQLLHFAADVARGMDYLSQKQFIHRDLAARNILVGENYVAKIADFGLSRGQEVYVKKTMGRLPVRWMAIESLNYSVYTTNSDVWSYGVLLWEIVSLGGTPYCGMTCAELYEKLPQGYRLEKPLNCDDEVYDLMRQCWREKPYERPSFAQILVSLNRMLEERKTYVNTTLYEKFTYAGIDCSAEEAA
Sequence of Vascular endothelial growth factor receptor 2 (P35968 whole entry): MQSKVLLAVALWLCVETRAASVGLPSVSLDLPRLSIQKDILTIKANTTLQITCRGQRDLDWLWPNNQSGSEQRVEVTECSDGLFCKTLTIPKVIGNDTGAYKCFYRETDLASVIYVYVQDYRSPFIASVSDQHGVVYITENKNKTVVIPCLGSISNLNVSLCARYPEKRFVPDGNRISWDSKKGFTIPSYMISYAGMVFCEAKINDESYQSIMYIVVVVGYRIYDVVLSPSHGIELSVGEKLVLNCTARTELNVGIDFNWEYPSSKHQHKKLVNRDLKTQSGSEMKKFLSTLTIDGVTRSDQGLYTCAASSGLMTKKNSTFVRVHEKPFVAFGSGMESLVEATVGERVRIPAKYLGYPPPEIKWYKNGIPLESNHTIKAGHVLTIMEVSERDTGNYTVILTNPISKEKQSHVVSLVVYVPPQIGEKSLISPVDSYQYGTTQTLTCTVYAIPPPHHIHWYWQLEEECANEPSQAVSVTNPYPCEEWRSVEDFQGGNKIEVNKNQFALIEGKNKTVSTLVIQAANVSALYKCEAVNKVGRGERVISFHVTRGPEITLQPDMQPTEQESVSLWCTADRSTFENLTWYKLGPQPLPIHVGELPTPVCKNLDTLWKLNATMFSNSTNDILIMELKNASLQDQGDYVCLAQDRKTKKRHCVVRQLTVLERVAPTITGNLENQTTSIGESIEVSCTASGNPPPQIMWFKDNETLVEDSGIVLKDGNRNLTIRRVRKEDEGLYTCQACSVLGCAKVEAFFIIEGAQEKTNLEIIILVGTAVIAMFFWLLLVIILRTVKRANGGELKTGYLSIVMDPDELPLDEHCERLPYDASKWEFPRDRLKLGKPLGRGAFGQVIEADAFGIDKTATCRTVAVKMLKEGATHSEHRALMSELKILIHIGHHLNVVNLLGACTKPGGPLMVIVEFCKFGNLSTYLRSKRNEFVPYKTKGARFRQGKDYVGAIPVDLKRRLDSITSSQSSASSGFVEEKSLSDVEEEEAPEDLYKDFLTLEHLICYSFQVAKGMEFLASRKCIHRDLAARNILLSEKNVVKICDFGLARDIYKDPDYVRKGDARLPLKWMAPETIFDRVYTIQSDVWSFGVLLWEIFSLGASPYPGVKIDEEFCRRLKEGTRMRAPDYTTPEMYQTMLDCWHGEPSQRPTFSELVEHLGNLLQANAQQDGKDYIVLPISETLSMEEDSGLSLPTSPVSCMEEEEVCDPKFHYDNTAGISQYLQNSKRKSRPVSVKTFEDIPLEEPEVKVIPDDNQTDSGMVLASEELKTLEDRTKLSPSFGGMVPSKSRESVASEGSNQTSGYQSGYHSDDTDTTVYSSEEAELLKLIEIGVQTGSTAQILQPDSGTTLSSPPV
Sequence of Epidermal growth factor receptor (P00533 whole entry): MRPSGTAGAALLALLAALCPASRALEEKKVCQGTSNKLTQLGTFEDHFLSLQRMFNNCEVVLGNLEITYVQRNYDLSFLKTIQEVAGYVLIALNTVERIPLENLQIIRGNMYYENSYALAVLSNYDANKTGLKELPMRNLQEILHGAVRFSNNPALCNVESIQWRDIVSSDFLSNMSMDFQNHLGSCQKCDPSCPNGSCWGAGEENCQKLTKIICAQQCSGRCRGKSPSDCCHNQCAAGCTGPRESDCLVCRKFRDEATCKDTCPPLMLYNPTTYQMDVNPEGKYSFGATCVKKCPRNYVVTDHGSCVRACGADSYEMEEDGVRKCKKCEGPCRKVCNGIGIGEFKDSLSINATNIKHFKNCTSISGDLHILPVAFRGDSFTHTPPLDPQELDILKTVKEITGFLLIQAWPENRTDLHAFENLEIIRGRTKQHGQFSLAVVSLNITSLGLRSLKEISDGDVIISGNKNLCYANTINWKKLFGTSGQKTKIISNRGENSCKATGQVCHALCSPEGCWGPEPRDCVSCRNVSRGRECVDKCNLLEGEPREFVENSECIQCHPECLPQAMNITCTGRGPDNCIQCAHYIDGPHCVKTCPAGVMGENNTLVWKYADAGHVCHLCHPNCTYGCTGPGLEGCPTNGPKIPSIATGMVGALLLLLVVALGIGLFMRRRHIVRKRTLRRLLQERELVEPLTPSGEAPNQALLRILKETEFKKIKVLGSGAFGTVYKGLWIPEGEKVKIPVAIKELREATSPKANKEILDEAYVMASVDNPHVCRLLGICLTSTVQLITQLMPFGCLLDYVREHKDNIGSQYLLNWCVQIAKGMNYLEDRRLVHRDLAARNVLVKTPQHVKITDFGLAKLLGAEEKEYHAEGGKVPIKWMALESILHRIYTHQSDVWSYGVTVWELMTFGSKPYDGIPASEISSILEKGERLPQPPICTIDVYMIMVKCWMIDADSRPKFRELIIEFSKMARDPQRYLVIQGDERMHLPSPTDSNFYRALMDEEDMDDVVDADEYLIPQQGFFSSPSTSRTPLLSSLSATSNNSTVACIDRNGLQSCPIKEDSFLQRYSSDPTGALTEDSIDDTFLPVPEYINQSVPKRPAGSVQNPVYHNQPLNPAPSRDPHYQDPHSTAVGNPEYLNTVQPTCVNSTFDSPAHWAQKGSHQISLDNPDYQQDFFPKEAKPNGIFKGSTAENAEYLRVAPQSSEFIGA
Sequence of Insulin receptor (P06213 28-758 limits assumed): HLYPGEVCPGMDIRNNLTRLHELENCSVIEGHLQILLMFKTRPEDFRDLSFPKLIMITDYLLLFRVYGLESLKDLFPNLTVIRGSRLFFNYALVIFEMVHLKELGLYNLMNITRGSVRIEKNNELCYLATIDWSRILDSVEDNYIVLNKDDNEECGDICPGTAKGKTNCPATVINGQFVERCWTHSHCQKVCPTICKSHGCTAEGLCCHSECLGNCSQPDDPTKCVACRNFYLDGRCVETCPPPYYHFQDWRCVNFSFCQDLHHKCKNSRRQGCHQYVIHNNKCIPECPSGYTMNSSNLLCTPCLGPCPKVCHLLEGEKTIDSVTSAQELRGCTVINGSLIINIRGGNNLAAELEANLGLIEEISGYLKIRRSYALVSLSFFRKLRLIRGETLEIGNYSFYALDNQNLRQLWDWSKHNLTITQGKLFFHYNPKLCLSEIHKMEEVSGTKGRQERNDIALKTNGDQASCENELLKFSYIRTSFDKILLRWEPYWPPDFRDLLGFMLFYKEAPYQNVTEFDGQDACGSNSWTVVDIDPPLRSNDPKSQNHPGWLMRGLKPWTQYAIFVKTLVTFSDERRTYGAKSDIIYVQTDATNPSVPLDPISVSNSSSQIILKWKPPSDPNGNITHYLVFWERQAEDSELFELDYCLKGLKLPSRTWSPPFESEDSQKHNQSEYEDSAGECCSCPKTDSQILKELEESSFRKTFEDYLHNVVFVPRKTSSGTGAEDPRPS
Sequence of Insulin receptor (P06213 763-1382 limits assumed): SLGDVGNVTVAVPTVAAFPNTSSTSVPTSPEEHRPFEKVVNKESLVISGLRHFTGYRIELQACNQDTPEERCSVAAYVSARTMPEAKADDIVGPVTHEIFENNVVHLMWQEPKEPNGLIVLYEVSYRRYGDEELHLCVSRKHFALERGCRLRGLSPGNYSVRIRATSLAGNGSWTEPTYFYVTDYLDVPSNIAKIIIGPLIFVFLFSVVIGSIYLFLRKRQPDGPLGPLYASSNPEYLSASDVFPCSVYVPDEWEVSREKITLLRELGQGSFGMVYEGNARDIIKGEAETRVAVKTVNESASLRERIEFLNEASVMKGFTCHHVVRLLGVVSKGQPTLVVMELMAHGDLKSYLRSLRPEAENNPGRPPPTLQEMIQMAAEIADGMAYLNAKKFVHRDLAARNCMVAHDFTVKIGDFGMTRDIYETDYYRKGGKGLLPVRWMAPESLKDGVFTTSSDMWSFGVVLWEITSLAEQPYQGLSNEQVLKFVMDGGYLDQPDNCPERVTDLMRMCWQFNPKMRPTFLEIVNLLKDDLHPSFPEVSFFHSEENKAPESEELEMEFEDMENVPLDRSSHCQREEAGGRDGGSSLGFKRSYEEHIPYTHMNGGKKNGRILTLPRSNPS

SMILES: C/C(=N\OC(C)(C)C)c1ccc2[nH]c3c4c(c5c(c3c2c1)CNC5=O)-c1cn(C)nc1CC4
IC50 (Angiopoietin-1 receptor): 93 nM

SMILES: CO/N=C(\C)c1ccc2c(c1)c1c3c(c4c(c1n2C)CCc1nn(C)cc1-4)C(=O)NC3
IC50 (Angiopoietin-1 receptor): 347 nM

SMILES: CCn1c2ccc(/C(C)=N/OC)cc2c2c3c(c4c(c21)CCc1nn(C)cc1-4)C(=O)NC3
IC50 (Angiopoietin-1 receptor): 300 nM

SMILES: CO/N=C/c1ccc2[nH]c3c4c(c5c(c3c2c1)CNC5=O)-c1cn(C)nc1CC4
IC50 (Angiopoietin-1 receptor): 148 nM

SMILES: CCO/N=C/c1ccc2[nH]c3c4c(c5c(c3c2c1)CNC5=O)-c1cn(C)nc1CC4
IC50 (Angiopoietin-1 receptor): 264 nM

SMILES: CO/N=C(/c1ccc2[nH]c3c4c(c5c(c3c2c1)CNC5=O)-c1cn(C)nc1CC4)C(C)C
IC50 (Angiopoietin-1 receptor): 264 nM

SMILES: CCO/N=C(/c1ccc2[nH]c3c4c(c5c(c3c2c1)CNC5=O)-c1cn(C)nc1CC4)C(C)C
IC50 (Angiopoietin-1 receptor): 92 nM

SMILES: CO/N=C(\C)c1ccc2c(c1)c1c3c(c4c(c1n2CC(C)C)CCc1nn(C)cc1-4)C(=O)NC3
EC50 (A-375 [1]): 70 nM
Activity (A-375 [2]): 38%
Activity (A-375 [3]): 80%
Activity (Mus musculus): Non-toxic
IC50 (Insulin receptor): > 1000 nM
IC50 (Angiopoietin-1 receptor): 30 nM
IC50 [4]: 7 nM
half-life [5]: 1.4 h
clearance [6]: 6.5 mL/min/kg
AUC(0-inf) [7]: 2760 ng·h/mL
Vd [8]: 0.8 L/kg
bioavailability [9]: 66%
half-life [10]: 6.5 h
AUC(0-inf) [11]: 9060 ng·h/mL
Cmax [12]: 874 ng/mL
IC50 [13]: 43 nM
IC50 [14]: > 1000 nM
IC50 [15]: 8 nM
IC50 [16]: 10 nM
EC50 (HUVEC [17]): 1 nM
Activity (HUVEC [18]): Non-toxic
EC50 (Rattus norvegicus): 3 nM

SMILES: Cn1cc2c(n1)CCc1c-2c2c(c3c1[nH]c1ccccc13)CNC2=O
IC50 (Angiopoietin-1 receptor): 1300 nM

SMILES: CO/N=C(\C)c1ccc2c(c1)c1c3c(c4c(c1n2C(C)C)CCc1nn(C)cc1-4)C(=O)NC3
IC50 (Angiopoietin-1 receptor): 97 nM

SMILES: CCCCn1c2ccc(/C(C)=N/OC)cc2c2c3c(c4c(c21)CCc1nn(C)cc1-4)C(=O)NC3
IC50 (Angiopoietin-1 receptor): 108 nM

More lines, now with the values ahead:

IC50 (Angiopoietin-1 receptor): 71 nM
SMILES: CO/N=C(\C)c1ccc2[nH]c3c4c(c5c(c3c2c1)CNC5=O)-c1cn(C)nc1CC4

IC50 (Angiopoietin-1 receptor): 28 nM
SMILES: C/C(=N\OC(C)C)c1ccc2[nH]c3c4c(c5c(c3c2c1)CNC5=O)-c1cn(C)nc1CC4

IC50 (Angiopoietin-1 receptor): 30 nM
SMILES: CCCn1c2ccc(/C(C)=N/OC)cc2c2c3c(c4c(c21)CCc1nn(C)cc1-4)C(=O)NC3

IC50 (Angiopoietin-1 receptor): 23 nM
SMILES: C/C(=N\OCC(C)C)c1ccc2c(c1)c1c3c(c4c(c1n2CC(C)C)CCc1nn(C)cc1-4)C(=O)NC3

IC50 (Angiopoietin-1 receptor): 10 nM
SMILES: C/C(=N\OCC(C)C)c1ccc2[nH]c3c4c(c5c(c3c2c1)CNC5=O)-c1cn(C)nc1CC4

IC50 (Angiopoietin-1 receptor): 46 nM
SMILES: C/C(=N\OCC(C)C)c1ccc2c(c1)c1c3c(c4c(c1n2C(C)C)CCc1nn(C)cc1-4)C(=O)NC3

IC50 (Angiopoietin-1 receptor): 2 nM
SMILES: COc1ccc(-c2oc3ncnc(N)c3c2-c2ccc(NC(=O)Nc3c(F)cccc3C(F)(F)F)cc2)cc1

IC50 (Insulin receptor): > 1000 nM
IC50 (Angiopoietin-1 receptor): 26 nM
IC50 [4]: 4 nM
half-life [5]: 2 h
clearance [6]: 7.4 mL/min/kg
AUC(0-inf) [7]: 2300 ng·h/mL
Vd [8]: 1.3 L/kg
bioavailability [9]: 31%
half-life [10]: 3.2 h
AUC(0-inf) [11]: 3610 ng·h/mL
Cmax [12]: 637 ng/mL
IC50 [13]: 14 nM
IC50 [14]: > 1000 nM
SMILES: CCO/N=C(\C)c1ccc2c(c1)c1c3c(c4c(c1n2C(C)C)CCc1nn(C)cc1-4)C(=O)NC3

IC50 (Angiopoietin-1 receptor): 45 nM
SMILES: CCn1c2ccc(/C(C)=N/OCC(C)C)cc2c2c3c(c4c(c21)CCc1nn(C)cc1-4)C(=O)NC3

IC50 (Angiopoietin-1 receptor): 52 nM
SMILES: C/C(=N\OC(C)C)c1ccc2c(c1)c1c3c(c4c(c1n2CC(C)C)CCc1nn(C)cc1-4)C(=O)NC3

IC50 (Angiopoietin-1 receptor): 44 nM
SMILES: C/C(=N\O)c1ccc2[nH]c3c4c(c5c(c3c2c1)CNC5=O)-c1cn(C)nc1CC4

IC50 (Angiopoietin-1 receptor): 23 nM
SMILES: CCO/N=C(\C)c1ccc2[nH]c3c4c(c5c(c3c2c1)CNC5=O)-c1cn(C)nc1CC4

IC50 (Angiopoietin-1 receptor): 25 nM
SMILES: CCO/N=C(\C)c1ccc2c(c1)c1c3c(c4c(c1n2CC(C)C)CCc1nn(C)cc1-4)C(=O)NC3

IC50 (Angiopoietin-1 receptor): 66 nM
SMILES: C/C(=N\OC(C)C)c1ccc2c(c1)c1c3c(c4c(c1n2C(C)C)CCc1nn(C)cc1-4)C(=O)NC3
